Measured values taken from patent US20070196349A1, “Whitening composition containing reduced coenzyme Q” (KANEKA CORPORATION, priority 2004, published 2007).
Marks after values point to notes of the source that are not given here.

Tests used:
[1] = tested on: Normal human dermal fibroblasts (NHDF); assay: Effect for protecting cells from oxidation stress in dermal fibroblasts (cellular ATP level after hydrogen peroxide); type: cell-based; settings: for ATP level: 1 mM hydrogen peroxide for 15 minutes
Method: Normal human dermal fibroblasts (NHDF: product of Kurabo Industries, Ltd.) were incubated in the basal medium Medium 106S (product of Kurabo Industries, Ltd.) supplemented with 2% fetal bovine serum, 10 μg/ml of heparin, 1 μg/ml of hydrocortisone, 10 ng/ml of human recombinant epidermal growth factor, and 3 ng/ml of human recombinant basic fibroblast growth factor under conditions of 37° C. and 5% CO2. After confluence, the cells were seeded onto a 96-well microplate (2.0×10^3 cells/well). In seeding, Medium 106S (product of Kurabo Industries, Ltd.) supplemented with 2% fetal bovine serum, 10 μg/ml of heparin, and 1 μg/ml of hydrocortisone was used. After 24 hours culture, the medium was exchanged to the same medium supplemented with a sample specimen, and after 24 hours, it was exchanged to Medium 106S (product of Kurabo Industries, Ltd.) supplemented with 2% fetal bovine serum, 10 μg/ml of heparin, 1 μg/ml of hydrocortisone, 7.5 μg/ml of coenzyme A, and a sample specimen in order to further culture for 48 hours. After that, the medium was removed to be exchange to the medium supplemented with 1 mM hydrogen peroxide (product of Wako Pure Chemical Industries), and then the cells were incubated for 15 minutes followed by rinsing with PBS, and cellular ATP level was determined using ATP assay kit (product of PerkinElmer) for comparison. The parametrical multiple comparison (Turkey type) was carried out in statistical processing, and the symbol “†” refers that the percentage of risk is less than 5% in comparison with the control group containing solvent only.

brown guinea pigs = assay: Inhibitory effect on pigmentation due to ultraviolet radiation; type: in vivo, guinea pig; settings: average of scores (Table 1) of six brown guinea pigs, #=(L1−L0)−(L′1−L′0), sample vs medium, UVB-irradiated dorsal skin, polyethylene glycol ointment containing 10 parts by weight of reduced coenzyme Q10 applied once a day for one month
Method: The dorsal hair of six brown guinea pigs was carefully shaved with a clipper or shaver, and the shaved dorsal skin of each guinea pig was irradiated with ultraviolet beams (UVB: wavelength 250 to 350 nm) in the minimum erythema dose at two square portions of 2 cm′2 cm on the right and left of the dorsal median. The ultraviolet irradiation was performed once every other day for three days to induce erythema. Also, a medium and a sample were continuously applied to the respective irradiated portions (erythema portions) once a day for one month to examine the inhibitory action on pigmentation. As the sample, a polyethylene glycol ointment containing 10 parts by weight of reduced coenzyme Q10 was used. As the medium, only polyethylene glycol was used. Evaluation was performed by measurement with a color-difference meter, and an L value was calculated from the observed Munsell value.
Namely, DL (change with time) of the medium-applied portion was subtracted from DL (change with time) of the opposite sample-applied portion to obtain a value (#) according to the following equation: #=(L1−L0)−(L′1−L′0)
L0: Test portion before application of the sample
L′0: Test portion before application of the medium
L1: Sample-applied test portion one month after continuous application
L′1: Medium-applied test portion one month after continuous application […]

[2] = tested on: Normal human dermal fibroblasts (NHDF); assay: Cell activation-promoting effect in dermal fibroblasts (cellular ATP level); type: cell-based; settings: for ATP level: 48 hours culture with sample
Method: Normal human dermal fibroblasts (NHDF: product of Kurabo Industries, Ltd.) were incubated in the basal medium Medium 106S (product of Kurabo Industries, Ltd.) supplemented with 2% fetal bovine serum, 10 μg/ml of heparin, 1 μg/ml of hydrocortisone, 10 ng/ml of human recombinant epidermal growth factor, and 3 ng/ml of human recombinant basic fibroblast growth factor under conditions of 37° C. and 5% CO2. After confluence, the cells were seeded onto a 96-well microplate (2.0×10^3 cells/well). In seeding, Medium 106S (product of Kurabo Industries, Ltd.) supplemented with 2% fetal bovine serum, 10 μg/ml of heparin, and 1 μg/ml of hydrocortisone was used. After 24 hours culture, the medium was exchanged to the same medium supplemented with a sample specimen in order to further culture for 48 hours. After that, the medium was removed and then the cells were rinsed with PBS, and cellular ATP level was determined using ATP assay kit (product of PerkinElmer) for comparison. The parametrical multiple comparison (Turkey type) was carried out in statistical processing, and the symbol “*” refers that the percentage of risk is less than 5%, and the symbol “**” refers that the percentage of risk is less than 1%, in comparison with the control group containing solvent only. In addition, the symbol “†” at the numerical value refers that the percentage of risk is less than 5% in comparison with oxidized coenzyme Q10.

Row | SMILES | ATP level ([1]; 8.13 μg/ml) [nM] | ATP level ([1]; 100 μg/ml) [nM] | cellular ATP level compared with the solvent control ([1]; 100 μg/ml, hydrogen peroxide oxidation stress, result in words) | Average evaluation score (brown guinea pigs) | Average evaluation score (brown guinea pigs; listed as reduced coenzyme Q10) | ATP level ([2]; 0.12 μg/ml) | ATP level ([2]; 0.98 μg/ml) | cellular ATP level compared with the solvent control ([2]; result in words) | cellular ATP level, reduced compared with oxidized coenzyme Q10 ([2]; result in words)
1 | COc1c(O)c(C)c(C/C=C(\C)CC/C=C(\C)CC/C=C(\C)CC/C=C(\C)CC/C=C(\C)CC/C=C(\C)CC/C=C(\C)CC/C=C(\C)CC/C=C(\C)CCC=C(C)C)c(O)c1OC [Reduced coenzyme Q10, reduced coenzyme Q10] | 73.93 ± 4.96 | 112.47 ± 5.45 | significantly increase the cellular ATP level | 2.17 | 2 (0 ≦ # < 0.5) | 277.21 ± 46.02**† nM | 267.24 ± 20.72** nM | significantly increase the cellular ATP level | significantly increase the cellular ATP level
2 | COC1=C(OC)C(=O)C(C/C=C(\C)CC/C=C(\C)CC/C=C(\C)CC/C=C(\C)CC/C=C(\C)CC/C=C(\C)CC/C=C(\C)CC/C=C(\C)CC/C=C(\C)CCC=C(C)C)=C(C)C1=O [Oxidized coenzyme Q10, oxidized coenzyme Q10, reference compound] | 82.29 ± 9.08 | 103.41 ± 1.17 | – | – | – | 183.23 ± 62.70 nM | 224.84 ± 43.55* nM | significantly increase the cellular ATP level | –
